Experimental findings from ChEMBL document CHEMBL5532656, “Novel ligustilide derivatives target quorum sensing system LasR/LasB and relieve inflammatory response against Pseudomonas aeruginosa infection” (Eur J Med Chem, 2024) are described below.

This experiment is described as follows: Inhibition of quorum sensing system in Pseudomonas aeruginosa PAO1-lasB-gfp at 10 uM relative to control.
The term inhibition denotes the share of the control response that was lost under treatment. Read a high inhibition as strong suppression. In turn, `CCCCC1(O)C2=C(C=CCC2)C(=O)N1Cc1ccco1` (configuration not stated) returned an inhibition of 33.9%. The result for `CCCCC1(O)C2=C(C=CCC2)C(=O)N1CCc1c[nH]c2ccc(O)cc12` (configuration not stated) reads 37.7%; that for `CCCCC1(O)C2=C(C=CCC2)C(=O)N1Cc1ccc(C#N)cc1` (configuration not stated), 44.3%. The result for `CCCCCN1C(=O)C2=C(CCC=C2)C1(O)CCCC` (configuration not stated) reads 21.2%; that for `CCCCC1(O)C2=C(C=CCC2)C(=O)N1Cc1cccc(OC)c1` (configuration not stated), 29.4%.

Compound `CCCCC1(O)C2=C(C=CCC2)C(=O)N1Cc1cccc(C(F)(F)F)c1` (configuration not stated) displayed an inhibition of 39.4%. The result for `CCCCC1(O)C2=C(C=CCC2)C(=O)N1Cc1cccc(Cl)c1` (configuration not stated) reads 34.2%. Compound `CCCCC1(O)C2=C(C=CCC2)C(=O)N1Cc1ccc(OCC)cc1` (configuration not stated) registered an inhibition of 40.5%. The result for `CCCCC1(O)C2=C(C=CCC2)C(=O)N1C1CC1` (configuration not stated) reads 20.4%; that for `CCCCC1(O)C2=C(C=CCC2)C(=O)N1Cc1ccc(F)cc1` (configuration not stated), 41.5%; that for `CCCCC1(O)C2=C(C=CCC2)C(=O)N1C1CCCC1` (configuration not stated), 16.7%. To `CCCCC1(O)C2=C(C=CCC2)C(=O)N1Cc1cccc(-c2ccccc2)c1` (configuration not stated) belongs 32.9%. `CCCCC1(O)C2=C(C=CCC2)C(=O)N1Cc1ccc(-c2ccccc2)cc1` (configuration not stated) had an inhibition of 43.8%. The result for `CCCCC1(O)C2=C(C=CCC2)C(=O)N1Cc1ccc(C(C)C)cc1` (configuration not stated) reads 40.7%; that for `CCCCC1(O)C2=C(C=CCC2)C(=O)N1c1ccccc1` (configuration not stated), 15.1%. To `CCCCC1(O)C2=C(C=CCC2)C(=O)N1C1CCCCC1` (configuration not stated) belongs 16.4%. Take `CCCCC1(O)C2=C(C=CCC2)C(=O)N1Cc1ccccc1OC` (configuration not stated): the inhibition came to 36.3%. The compound `C#CCN1C(=O)C2=C(CCC=C2)C1(O)CCCC` (configuration not stated) registered an inhibition of 21.5%. To `CCCCC1(O)C2=C(C=CCC2)C(=O)N1Cc1ccc(C)cc1` (configuration not stated) belongs 41.5%.

Take `CCCCC1(O)C2=C(C=CCC2)C(=O)N1Cc1ccccc1C(F)(F)F` (configuration not stated): the inhibition amounted to 45.1%.

`CCCCC1(O)C2=C(C=CCC2)C(=O)N1Cc1ccc(O)cc1` (configuration not stated) yielded an inhibition of 40.2%. Compound `CCCCC1(O)C2=C(C=CCC2)C(=O)N1Cc1cccnc1` (configuration not stated) came in with an inhibition of 31.9%.

As to `CCCCC1(O)C2=C(C=CCC2)C(=O)N1Cc1ccc(OC)cc1` (configuration not stated), the inhibition was 40.7%. To `CCCCC1(O)C2=C(C=CCC2)C(=O)N1Cc1ccccc1F` (configuration not stated) belongs 40.4%; to `CCCCC1(O)C2=C(C=CCC2)C(=O)N1Cc1ccccc1Cl` (configuration not stated), 37.6%; to `CCCCC1(O)C2=C(C=CCC2)C(=O)N1Cc1ccc(N(C)C)cc1` (configuration not stated), 35.3%.

In turn, `CCCCN1C(=O)C2=C(CCC=C2)C1(O)CCCC` (configuration not stated) gave an inhibition of 21.6%. `CCCCC1(O)C2=C(C=CCC2)C(=O)N1CCC` (configuration not stated) came in with an inhibition of 21.1%.

`CCCCC1(O)C2=C(C=CCC2)C(=O)N1CC` (configuration not stated): the inhibition stood at 17.4%. In turn, `CCCCC1(O)C2=C(C=CCC2)C(=O)N1CCc1ccccc1` (configuration not stated) showed an inhibition of 11.6%. On to `CCCCC1(O)C2=C(C=CCC2)C(=O)N1Cc1ccc(Cl)cc1` (configuration not stated), for which the inhibition stood at 47.4%. On to `CCCCC1(O)C2=C(C=CCC2)C(=O)N1CCCCc1ccccc1` (configuration not stated), for which the inhibition came out at 18.1%.

In the case of `CCCCC1(O)C2=C(C=CCC2)C(=O)N1Cc1cccs1` (configuration not stated), the inhibition turned out to be 29.7%. To `CCCCC1(O)C2=C(C=CCC2)C(=O)N1CCc1c[nH]c2ccc(OC)cc12` (configuration not stated) belongs 30.6%; to `CCCCC1(O)C2=C(C=CCC2)C(=O)N1Cc1cccc(F)c1` (configuration not stated), 41%. To `CCCCC1(O)C2=C(C=CCC2)C(=O)N1Cc1ccc(Br)cc1` (configuration not stated) belongs 45.2%. For the compound `CCCCC1(O)C2=C(C=CCC2)C(=O)N1c1ncccn1` (configuration not stated), the inhibition was 35.5%.
